Where “and” joins values, the source holds several entries; their conditions need not be identical. Identical values can stand only once. Inconclusive results and toxic doses are left out. Rule as the data show it: active = T/C of 150% or more; inactive = T/C below 125%. Square brackets hold non-standard residues; d marks the D form. Peptide text beside a SMILES is read from it. ξ: configuration not given here. ξI = CCC(C)C(N)C(=O)O
System: L1210 leukemia ip in BDF1 mice, survival T/C
Experiment: NCI In Vivo Anticancer Drug Screen. Data for tumor model L1210 Leukemia (intraperitoneal) in B6D2F1 (BDF1) mice
Conditions: endpoint: mean survival time, higher = longer survival
Method in brief: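 Each compound was tested against a transplantable tumor grown in mice. The endpoint was survival, with treated animals benchmarked against vehicle controls as a simple ratio.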

[1] = dose: 100.0 mg/kg/injection, schedule: Q01DX001 (ip), vehicle: saline
[2] = dose: 200.0 mg/kg/injection, schedule: Q01DX001 (ip), vehicle: saline
[3] = dose: 400.0 mg/kg/injection, schedule: Q01DX001 (ip), vehicle: saline
[4] = dose: 100.0 mg/kg/injection, schedule: Q04DX002 (ip), vehicle: saline
[5] = dose: 200.0 mg/kg/injection, schedule: Q04DX002 (ip), vehicle: saline
[6] = dose: 400.0 mg/kg/injection, schedule: Q04DX002 (ip), vehicle: saline
[7] = dose: 100.0 mg/kg/injection, schedule: Q04DX003 (ip), vehicle: Klucel (hydroxypropylcellulose) (HPC)
[8] = dose: 200.0 mg/kg/injection, schedule: Q04DX003 (ip), vehicle: Klucel (hydroxypropylcellulose) (HPC)
[9] = dose: 400.0 mg/kg/injection, schedule: Q04DX003 (ip), vehicle: Klucel (hydroxypropylcellulose) (HPC)
[10] = dose: 100.0 mg/kg/injection, schedule: Q04DX003 (ip), vehicle: saline with Tween-80
[11] = dose: 400.0 mg/kg/injection, schedule: Q04DX003 (ip), vehicle: saline with Tween-80
[12] = dose: 100.0 mg/kg/injection, schedule: Q04DX002 (ip), vehicle: saline with Tween-80
[13] = dose: 100.0 mg/kg/injection, schedule: Q04DX003 (ip), vehicle: saline
[14] = dose: 200.0 mg/kg/injection, schedule: Q04DX002 (ip), vehicle: saline with Tween-80
[15] = dose: 200.0 mg/kg/injection, schedule: Q04DX003 (ip), vehicle: saline
[16] = dose: 400.0 mg/kg/injection, schedule: Q04DX002 (ip), vehicle: saline with Tween-80
[17] = dose: 400.0 mg/kg/injection, schedule: Q04DX003 (ip), vehicle: saline
[18] = dose: 100.0 mg/kg/injection, schedule: Q01DX009 (ip), vehicle: saline with Tween-80
[19] = dose: 200.0 mg/kg/injection, schedule: Q01DX001 (ip), vehicle: saline with Tween-80
[20] = dose: 200.0 mg/kg/injection, schedule: Q01DX009 (ip), vehicle: saline with Tween-80
[21] = dose: 200.0 mg/kg/injection, schedule: Q04DX003 (ip), vehicle: saline with Tween-80
[22] = dose: 25.0 mg/kg/injection, schedule: Q01DX001 (ip), vehicle: Klucel (hydroxypropylcellulose) (HPC)
[23] = dose: 50.0 mg/kg/injection, schedule: Q01DX001 (ip), vehicle: Klucel (hydroxypropylcellulose) (HPC)
[24] = dose: 100.0 mg/kg/injection, schedule: Q01DX001 (ip), vehicle: Klucel (hydroxypropylcellulose) (HPC)

Measured: T/C

CCOC(=O)/C=C(\C)C(C)(C)C(C)=O
inactive: [1] 90 % of control | [2] 101 % of control | [3] 98 % of control

CCOC(=O)COCc1ccccc1
inactive: dose: 25.0 mg/kg/injection, schedule: Q01DX009 (ip), vehicle: saline sonified 98 % of control | dose: 50.0 mg/kg/injection, schedule: Q01DX009 (ip), vehicle: saline sonified 93 % of control | dose: 100.0 mg/kg/injection, schedule: Q01DX009 (ip), vehicle: saline sonified 98 % of control | dose: 100.0 mg/kg/injection, schedule: Q04DX003 (ip), vehicle: saline sonified 97 % of control | dose: 176.0 mg/kg/injection, schedule: Q04DX003 (ip), vehicle: saline sonified 98 % of control | dose: 200.0 mg/kg/injection, schedule: Q04DX003 (ip), vehicle: saline sonified 90 % of control | dose: 264.0 mg/kg/injection, schedule: Q04DX003 (ip), vehicle: saline sonified 91 % of control | dose: 400.0 mg/kg/injection, schedule: Q04DX003 (ip), vehicle: saline sonified 104 % of control

COC1OC(CO)C2OC(C)(C)OC2C1O (configuration not stated)
inactive: [4] 93 % of control | [5] 101 % of control | [6] 104 % of control

O=C(O)C1CCC(C(=O)O)c2ccccc21 (configuration not stated)
inactive: dose: 12.5 mg/kg/injection, schedule: Q04DX003 (ip), vehicle: Klucel (hydroxypropylcellulose) (HPC) 91 % of control | dose: 25.0 mg/kg/injection, schedule: Q04DX003 (ip), vehicle: Klucel (hydroxypropylcellulose) (HPC) 96 % of control | dose: 50.0 mg/kg/injection, schedule: Q04DX003 (ip), vehicle: Klucel (hydroxypropylcellulose) (HPC) 102 % of control | [7] 93 % of control and 91 % of control | [8] 95 % of control | [9] 88 % of control and 91 % of control

CC1=C[P+](C)(Cc2ccccc2)CC1 (configuration not stated)
inactive: [1] 100 % of control

CC1(c2ccc(Cl)cc2)NC(=O)N(CC(N)=O)C1=O (configuration not stated)
inactive: [10] 105 % of control | [11] 122 % of control

CCC(C)C(NC(=O)CN)C(=O)O (configuration not stated) (H-Gly-[ξI]-OH)
inactive: [12] 97 % of control | [13] 98 % of control | [14] 102 % of control | [15] 98 % of control | [16] 97 % of control | [17] 91 % of control

O=C(Nc1ccc(C2=NCCN2)c(O)c1)c1cccc(C(=O)Nc2ccc(C3=NCCN3)c(O)c2)c1
inactive: dose: 10.0 mg/kg/injection, schedule: Q01DX Z (ip), vehicle: carboxymethylcellulose (CMC) 101 % of control | dose: 20.0 mg/kg/injection, schedule: Q01DX Z (ip), vehicle: carboxymethylcellulose (CMC) 109 % of control | dose: 40.0 mg/kg/injection, schedule: Q01DX Z (ip), vehicle: carboxymethylcellulose (CMC) 101 % of control | dose: 80.0 mg/kg/injection, schedule: Q01DX Z (ip), vehicle: carboxymethylcellulose (CMC) 101 % of control

CN(C)C(=S)SN(C)C(=O)Nc1ccccc1
inactive: [7] 105 % of control | [8] 109 % of control | [9] 107 % of control

O=C1ON(c2ccccc2)C(c2ccccc2)N1c1ccc([N+](=O)[O-])cc1 (configuration not stated)
inactive: dose: 50.0 mg/kg/injection, schedule: Q01DX001 (ip), vehicle: saline 106 % of control | [1] 114 % of control | [2] 100 % of control | [3] 112 % of control

O=C(Nc1ccc(F)cc1)OCCOc1ccc(Cl)cc1Cl
inactive: dose: 100.0 mg/kg/injection, schedule: Q01DX009 (ip), vehicle: Klucel (hydroxypropylcellulose) (HPC) 105 % of control | dose: 200.0 mg/kg/injection, schedule: Q01DX009 (ip), vehicle: Klucel (hydroxypropylcellulose) (HPC) 110 % of control | dose: 400.0 mg/kg/injection, schedule: Q01DX009 (ip), vehicle: Klucel (hydroxypropylcellulose) (HPC) 109 % of control

COc1ccc2c(O)c(Cl)c(=O)oc2c1
inactive: [13] 91 % of control | [15] 91 % of control | [17] 94 % of control

COc1cc(N=Cc2ccc([N+](=O)[O-])cc2)c2ncccc2c1
inactive: dose: 100.0 mg/kg/injection, schedule: Q01DX001 (ip), vehicle: carboxymethylcellulose (CMC) 101 % of control | dose: 200.0 mg/kg/injection, schedule: Q01DX001 (ip), vehicle: carboxymethylcellulose (CMC) 94 % of control | dose: 400.0 mg/kg/injection, schedule: Q01DX001 (ip), vehicle: carboxymethylcellulose (CMC) 92 % of control

CCNc1nc(N)nc2n[nH]nc12
inactive: dose: 50.0 mg/kg/injection, schedule: Q01DX009 (ip), vehicle: saline with Tween-80 95 % of control | dose: 50.0 mg/kg/injection, schedule: Q04DX003 (ip), vehicle: saline with Tween-80 98 % of control | dose: 100.0 mg/kg/injection, schedule: Q01DX001 (ip), vehicle: saline with Tween-80 101 % of control | [18] 89 % of control | [10] 101 % of control | [19] 94 % of control | [20] 89 % of control | [21] 98 % of control

COc1ccc(/C=C2\N=C(c3ccc([N+](=O)[O-])cc3)OC2=O)cc1Br
inactive: [4] 101 % of control | [5] 104 % of control | [6] 115 % of control

C[n+]1cccc2ccccc21
inactive: dose: 12.5 mg/kg/injection, schedule: Q04DX003 (ip), vehicle: saline 96 % of control | dose: 25.0 mg/kg/injection, schedule: Q04DX003 (ip), vehicle: saline 93 % of control and 91 % of control | dose: 50.0 mg/kg/injection, schedule: Q04DX003 (ip), vehicle: saline 93 % of control and 95 % of control | [13] 93 % of control and 105 % of control

c1cc[c]([Ge]([c]2ccccc2)([c]2ccccc2)[c]2cc[c]([Ge]([c]3ccccc3)([c]3ccccc3)[c]3ccccc3)cc2)cc1
inactive: [12] 97 % of control | [14] 87 % of control | [16] 91 % of control

CCCCCCP(=O)(CCCCCC)C1CCCCC1
inactive: [22] 94 % of control | [23] 88 % of control | [24] 102 % of control | [19] 97 % of control

C1=C(c2ccccc2)CCCCC1
inactive: [18] 87 % of control | [10] 95 % of control | [20] 96 % of control | [21] 100 % of control | dose: 400.0 mg/kg/injection, schedule: Q01DX009 (ip), vehicle: saline with Tween-80 99 % of control | [11] 98 % of control

CC(=O)Oc1ccc([N+](=O)[O-])cc1OC(C)=O
inactive: dose: 75.0 mg/kg/injection, schedule: Q01DX001 (ip), vehicle: water 92 % of control | dose: 150.0 mg/kg/injection, schedule: Q01DX001 (ip), vehicle: water 92 % of control | dose: 300.0 mg/kg/injection, schedule: Q01DX001 (ip), vehicle: water 95 % of control

Nc1nc(=S)ss1
inactive: [7] 108 % of control | [8] 105 % of control | [9] 97 % of control

Nc1cccc(-c2nc3[nH]ncc3c(=O)[nH]2)c1
inactive: [22] 100 % of control | [23] 98 % of control | [24] 93 % of control

CN(C)C(=O)c1ccc(NCc2cnc3nc(N)nc(N)c3n2)cc1
inactive: dose: 20.0 mg/kg/injection, schedule: Q01DX009 (ip), vehicle: Klucel (hydroxypropylcellulose) (HPC) 97 % of control | dose: 40.0 mg/kg/injection, schedule: Q01DX009 (ip), vehicle: Klucel (hydroxypropylcellulose) (HPC) 96 % of control | dose: 80.0 mg/kg/injection, schedule: Q01DX009 (ip), vehicle: Klucel (hydroxypropylcellulose) (HPC) 97 % of control

NC1(c2ccccc2)CC1
inactive: dose: 25.0 mg/kg/injection, schedule: Q04DX002 (ip), vehicle: Klucel (hydroxypropylcellulose) (HPC) 90 % of control | dose: 50.0 mg/kg/injection, schedule: Q04DX002 (ip), vehicle: Klucel (hydroxypropylcellulose) (HPC) 93 % of control | dose: 100.0 mg/kg/injection, schedule: Q04DX002 (ip), vehicle: Klucel (hydroxypropylcellulose) (HPC) 95 % of control and 98 % of control
